Source: patent publication US7122524B2, “Tripeptides and tripeptide derivatives for the treatment of postlesional disease of the nervous system” (Neurotell AG, priority 2002, dated 2006)
≈ marks a conversion by molar mass, not a printed value. Where a name gives a salt, the structure may show the parent alone. Read-outs that look alike come from different tables or passages of the source. Values belong to the compound of their own block, whether it stands above or below them. Residues, ends and D or L forms follow the SMILES beside them.

What was measured:
[1] = Metabolic stability in rat hepatocytes; assay type: in vitro ADME; settings: male, Wistar, 10^6 cells/ml, analysed during 24 h, read-out: T½ (converted)
Excerpt: Hepatocytes from adult male Wistar rats (IFFA Credo, L'Arbresle, France) were isolated by an in situ liver perfusion using collagenase (purchased from Sigma (St. Louis, Mo., U.S.A), according to a procedure described by Seglen (Preparation of isolated rat liver cell, Methods Cell Biol. 13, 29–83, 1976) and modified by Williams et al. (Rat hepatocyte primary culture. III. Improved dissociation and attachment techniques and the enhancement of survival by culture medium, in vitro 13: 809–817, 1977). After estimation of cell viability by the peripheral refractoriness of intact cells in phase contrast microscopy and the trypan blue test, freshly isolated hepatocytes were washed in basal William's medium E (WME) supplemented with 10% (v/v) fetal calf serum, 70 μM cortisol, 2 mM L-glutamine, 10 mM HEPES buffer, and 4 mM NaOH. They were then plated at a density of 0,5×10^6 cells per 50 mm plastic cell culture dishes in the medium described previously for cell attachment for 6 hours at 37° C. Subsequently, hepatocytes were washed three times in serum- and cholesterol-free medium (SF-WME) containing 4 g/l bovine albumin fraction V (Sigma) as transporter for 7.8 μM of a mixture of free fatty acids (Cheesebeuf M and Padieu P, expression of major liver metabolic function in long-term serum-free rat liver epithelial cell lines. In vitro 20: 780–795, 1984), and then were transferred to the SF-WME supplemented with the various tripeptides of formula (I). For each group of experiments, hepatocytes from three or four livers were used.
Significances are calculated using Student's t-test. Values are expressed as mean±SD.
• Method: (Hepatocytes in suspension) • Plasma sample: Precipitation with trichloracetic acid. • Centrifugation and aliquot of supernatant to HPLC. • […] column: Nucleosil C18 (250×4,6 mm). • Buffer TEAP 0,1%/CH3CN, 1 ml/min • Readings at 210 nm. […]
Each substance of each concentration will be analysed 10 times during 24 h (1 h, 2 h, 4 h, 6 h, 8 h, 10 h, 12 h, 16 h, 20 h, 24 h).

[2] = literature value; cited from earlier work
cholinergic nerve ends = assay: Sprouting assay (dendrite length after septum lesion); assay type: in vivo, rat; settings: rats, septum of hippocampus destroyed; 20 mg/per kg bodyweight per day over at least 15 days
Procedure: The sprouting of nerve cells is determined by the length of the dendrites. According to the present invention, the influence of the substances used according to the present invention on the sprouting is studied in an in vivo assay.
The septum of the hippocampus of 10 rats was destroyed (see Hagg et al; Exp. Neurol., 101, 303–312). 21 days after the impairment of the hippocampus was unambiguous, as confirmed by a behavioural test, the rats were divided into two groups of 5 rats each. 20 mg/per kg bodyweight per day of the substance used according to the present invention (GFPNH2) was administered to the test group of 5 rats over at least 15 days.
After administration, the animals were killed, and the cholinergic nerve ends were observed by a CAT (choline-acetyl-transferase) immunofluorescence assay under a fluorescence microscope. The length of the dendrites was measured thereby.

[3] = freshly isolated rat hepatocytes (in suspension)

Compound: CC[C@H](C)[C@H](NC(=O)[C@H]([C@@H](C)CC)N(CC)CC)C(=O)N1CCC[C@H]1C(N)=O [N,N-Diethyl-Ile-Ile-ProNH2, N,N-diethyl-isoleucyl-isoleucyl-prolineamide]
solubility (physchem): 1000 µg/mL (≈ 2520 µM)
predicted absorption after peroral application (PAMPA classification) (PAMPA): medium to highly absorbed
half-life [1, 3]: 3.4 h

Compound: CC[C@H](C)[C@H](NC(=O)CN(CC)CC)C(=O)N1CCC[C@H]1C(N)=O [N,N-Diethyl-Gly-Ile-ProNH2]
predicted absorption after peroral application (PAMPA classification) (PAMPA): medium to highly absorbed
half-life ([1]; freshly isolated rat hepatocytes): 2.8 h

predicted absorption after peroral application (PAMPA classification) (PAMPA): medium to highly absorbed
Compound: CC[C@H](C)[C@H](NC(C)C)C(=O)N[C@H](C(=O)N1CCC[C@H]1C(N)=O)[C@@H](C)CC [N-Isopropyl-Ile-Ile-ProNH2]

Compound: CCNC(=O)[C@@H]1CCCN1C(=O)[C@H](Cc1ccccc1)NC(=O)[C@H]([C@@H](C)CC)N(CC)CC [N,N-Diethyl-Ile-Phe-ProNHEt, N,N-diethyl-isoleucyl-phenylalanyl-L-proline ethylamide]
solubility (physchem): 1000 µg/mL (≈ 2180 µM)
predicted absorption after peroral application (PAMPA classification) (PAMPA): medium to highly absorbed
half-life [1, 3]: 4.5 h

Compound: thyreoliberin [TRH, reference compound]
predicted absorption after peroral application (PAMPA classification) (classification by flux rate): weakly absorbed

Compound: C[C@]12CCC(=O)C=C1CC[C@@H]1[C@@H]2[C@@H](O)C[C@@]2(C)[C@H]1CC[C@]2(O)C(=O)CO [Hydrocortisone]
flux rate published by Kansy et al. [2]: 52%

Compound: NCC(=O)N[C@@H](Cc1ccccc1)C(=O)N1CCC[C@H]1C(N)=O [HCl-Gly-Phe-ProNH2, glycyl-L-phenylalanyl-L-prolineamide] (H-Gly-Phe-Pro-NH2)
increase of the dendrite length (cholinergic nerve ends): 8 to 10 μm
predicted absorption after peroral application (PAMPA classification) (PAMPA): weakly absorbed

Compound: O=c1ccc2ccccc2o1 [Coumarin]
flux rate published by Kansy et al. [2]: 66%
